From patent US20020142982A1, “Method for regulating angiogenesis” (priority 1999, published 2002)

Columns and labels:
Format in all cases: cell-based, human
ERK-2 = ERK-2 immune complex kinase assay in HUVEC; conditions: PTx 200 ng/mL or PD98059 10 μM, 2 hours pretreatment
Procedure: As a second functional assay, ERK-2 kinase activity was measured in response to SPP treatment. For these experiments, endothelial cells were starved for 19 hours, and then stimulated with SPP for 10 minutes. Cells were then lysed, and ERK-2 kinase activity was measured by an immune complex kinase assay using myelin basic protein (MBP) as substrate. Some cells were pretreated with pertussis toxin (PTx) at 200 ng/mL, or PD98059 at 10 μM for 2 hours prior to stimulation.

HUVEC [1] = experiment: C2-Ceramide-induced apoptosis of HUVEC (DNA fragmentation); conditions: pretreatment 2 hours; PD98059 10 μM
Procedure: The ability of SPP to protect endothelial cells from apoptosis was investigated. In these experiments, HUVEC were treated with 1 μM C2-Ceramide for 12 hours and apoptosis was measured in the following manner: HUVEC were plated onto coverslips and allowed to grow for 2 days. Cells were washed three times with medium M199, and treated with 1 μM C2-Ceramide (Biomol) for 12 hours in the presence or absence of SPP. Subsequently, cells were fixed with methanol at −20° C. for 5 minutes, air dried, and stained with Hoechst 33258 dye (0.5 μg/mL for 5 minutes; Sigma Chemical Co., St. Louis, Mo.). The apoptotic nuclei were identified with the aid of a Zeiss Axiovert 100TB fluorescence microscope. For quantification, HUVEC were labeled with ^3Hmethyl-thymidine (5 μCi/mL, NEN DuPont) for 24 hours. Following three washes with medium M199, cells were treated with C2-Ceramide as above. 12 hours later, cells were extracted with lysis buffer (5 mM tris, pH 7.4, 2 mM EDTA, 0.5% TX-100) at 4° C. for 20 minutes. After centrifugation (15,000 g, 20 minutes), the radioactivity present in the supernatant and sediment was measured by liquid scintillation counting. The percentage of DNA fragmentation was determined as ((supernatant cpm)/(supernatant cpm+sediment cpm))×100%.
SPP+PTx and SPP+PD98059 (10 μM), respectively, for 2 hours prior to the addition of C2-Ceramide (1 μM) and SPP (10 to 500 nM). Data are mean±standard deviation of triplicate determinations from a representative experiment which was repeated two times. […] A similar effect was also seen when growth factor withdrawal, and 15-deoxy Δ^12,14 prostaglandin J2 were used as apoptotic stimuli (data not shown). […] Therefore SPP induced endothelial cell survival requires the Gi/ERK signaling pathway.

HUVEC [2] = experiment: Adherens junction assembly in HUVEC, immunofluorescence of VE-cadherin and catenins; conditions: for VE-cadherin, α-, β- and γ-catenin localization at cell-cell junctions: 500 nM, 1 hour
Procedure: To investigate whether SPP regulates the formation of adherens junction in endothelial cells, HUVEC were plated at a density of 2×10^4 cells/em^2 for 2 days, starved in lipid-depleted medium and treated without (cont) or with SPP (500 nM for 1 hours). For these experiments, after treatment cells were washed with ice-cold PBS, fixed with 4% formaldehyde at room temperature or methanol at −20° C. for 15 minutes. In the case of formaldehyde fixation, cells were permeabilized with 0.2% TX-100. After washing with PBS, cells were stained with antibodies as follows: VE-cadherin ([…], Transduction Labs, San Diego, Calif.; 1 μg/mL, Santa Cruz Biotechnology, Inc., Santa Cruz, Calif.), α-catenin ([…], Transduction Labs), β-catenin (1.25 μg/mL, Transduction Labs; 0.4 μg/mL, Santa Cruz), γ-catenin ([…], Transduction Labs). The primary antibody staining was visualized with FITC-conjugated goat anti-rabbit or TRITC conjugated sheep anti-mouse (1:1000, Cappel, now owned by ICN, Costa Mesa, Calif.) for 30 minutes at room temperature, and imaged on a Zeiss Axiovert 100TV fluorescence microscope. […]

HUVEC [3] = experiment: HUVEC morphogenesis on MATRIGEL (in vitro angiogenesis, tubular length); conditions: for HUVEC morphogenesis on MATRIGEL (tubular length): 12-18 hours, SPM and C1P 1 μM
Procedure: FIG. 42 is microscope images showing morphogenesis of HUVEC cells plated on Matrigel. HUVEC cells were transduced with 50 MOI of indicated viruses; a,b=none, c=β-gal, d=wild-type EDG-1, e=T236AEDG-1, f=T236AEDG-1+wild-type Akt. Total viral load in c-f is normalized. In vitro angiogenesis assay on Matrigel was conducted in the presence (b to f) or not (a) of 100 nM S1P. The numbers are mean±s.e.m of total tubular length per microscopic field (n=2). Scale bar=170 μm.
To investigate SPP induction of angiogenesis, 200 μL aliquots of thawed MATRIGEL were polymerized in 24-well tissue culture plates. HUVEC were trypsinized, resuspended in plain M199 medium containing soybean trypsin inhibitor (10 mg/mL, Sigma Chemical Co., St. Louis, Mo.). Following centrifugation (250 g; 5 minutes), cells were resuspended in plain M199 supplemented with 2% CFBS at a density of 1.5×10^5 cells/mL. 200 μL of cell suspension were seeded on these gels in the presence or absence of SPP (Biomol), for 12-18 hours. Cells were rinsed two times with phosphate buffered saline (PBS), and then fixed with 4% formaldehyde. Results were recorded photographically using a Zeiss Axiovert 100TV microscope equipped with a 5× objective. Five random fields of each well were photographed, and total tubular length was quantified by image analysis (Kinsella, J. et al., Experimental Cell Research 199: 56-62 (1992); Gamble J., et al., J. Cell Biol. 121: 931-943 (1993)).
Scale bar represents 52 microns. These quantitative data are the mean±standard deviation of duplicate determinations from a representative experiment which was repeated at least three times. SPP concentrations (in μM) are indicated in parentheses. For SPP +PTx, HUVEC were pretreated with PTx (200 ng/mL) for 2 hours, trypsinized, plated onto MATRIGEL, then stimulated with 500 nM SPP in the presence of PTx (20 ng/mL) for 16-18 hours. For SPP+C3, HUVEC were pretreated with C3 exoenzyme (10 μg/mL) for 48 hours, trypsinized, plated onto MATRIGEL, stimulated with 500 nM SPP together with the same concentration of C3 exotoxin. SPM, sphingomyelin (1 μM). For C1P, C8-ceramide-1-phosphate (1 μM). The maximal effects achieved by 1 μM SPP was indistinguishable from the positive control medium which contained FBS.
In these experiments, HUVEC were plated onto MATRIGEL in the presence of the same amount of corresponding antibodies without or with 500 nM SPP. 16 hours later, total length of HUVEC networks formed on MATRIGEL was quantified.

HUVEC [4] = experiment: SPP-induced intracellular calcium in HUVEC (Indo-1 fluorescence); conditions: PTx 500 ng/mL pretreatment 16 hours
Procedure: Functional assays were used to test for the presence of Gi-coupled and Gq-coupled SPP receptors in HUVEC. First, intracellular calcium levels were measured in response to SPP. For these experiments, cells were grown on 100-mm tissue culture dishes and loaded with the fluorescent calcium-sensitive dye, Indo-1 acetoxymethyl ester (Indo-1/AM, 5 μg/mL; Molecular Probes, Inc., Eugene, Oreg.), for 30 min at 37° C. Cells were then washed with medium M199, briefly trypsinized (0.05% porcine trypsin/0.02% EDTA in HBSS (JRH Biosciences, Lenexa, Kans.), and the trypsin activity was immediately neutralized with soybean trypsin inhibitor (5 μg/mL, Sigma Chemical Co., St. Louis, Mo.). Following centrifugation (250 g×5 min), cells were resuspended in M199 medium to a density of 2.7×10^5 cells/mL. Cells were then stimulated with different doses of SPP. Some cells were pretreated with the Gi inhibitor pertussis toxin (PTx, 500 ng-/mL) for 16 hours. Calcium ion concentration was then quantified by measuring changes in indo-1 fluorescence in 2 mL of cell suspension by a Hitachi F-2000 fluorescence Spectrophotometer with constant stirring. Fluorescence emission was monitored at 400 and 475 nm with excitation at 352 nm. [Ca^+2]1 was calculated as described in Volpi and Berlin, J. Cell Biol., Vol. 107, 2533-39 (1988).

Compound | inhibition of SPP-induced ERK activity (ERK-2) | inhibition of the cytoprotective effect of SPP (HUVEC [1]) | VE-cadherin, α-, β- and γ-catenin localization at cell-cell junctions (HUVEC [2]) | HUVEC morphogenesis on MATRIGEL (tubular length) (HUVEC [3]) | also measured
COc1cccc(-c2cc(=O)c3ccccc3o2)c1N [PD98059] | inhibited completely | completely inhibited |  |  | 
CCCCCCCCCCCCC/C=C/[C@@H](O)[C@H](COP(=O)(O)O)NC(=O)CCCCCCC [ceramide-1-phosphate, C8-ceramide-1-phosphate] |  |  | had no effect | inactive | 
CCCCCCCCCCCCC/C=C/[C@@H](O)[C@@H](N)CO [sphingosine] |  |  | had no effect |  | 
ceramide |  |  | had no effect |  | 
pertussis toxin | inhibited completely | completely inhibited |  |  | inhibition of SPP-induced calcium response (HUVEC [4]): approximately 90%; inhibition of SPP-induced β-catenin translocation (HUVEC [2]; HUVEC, SPP treatment): did not inhibit; inhibition of SPP-induced morphogenesis (HUVEC [3]; 500 nM SPP, MATRIGEL): potently inhibited
sphingomyelin |  |  | had no effect | inactive | 
